Experimental data: PubChem BioAssay AID328 (DTP/NCI, 2004)
Where “and” joins values, the source holds several entries; their conditions need not be identical. Equal values may be shown once. Toxic doses and inconclusive results are not listed.

System: BDF1 mice, P388 leukemia ip, median survival T/C
Assay: NCI In Vivo Anticancer Drug Screen. Data for tumor model P388 Leukemia (intraperitoneal) in B6D2F1 (BDF1) mice
Conditions: endpoint: median survival time, higher = longer survival
How it was run: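 Mice carrying the transplantable tumour receive compound or vehicle. Survival is followed in each arm, and the treated measure is divided by the vehicle measure.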

[1] = dose: 25.0 mg/kg/injection, schedule: Q04DX003 (ip), vehicle: saline
[2] = dose: 50.0 mg/kg/injection, schedule: Q04DX003 (ip), vehicle: saline
[3] = dose: 100.0 mg/kg/injection, schedule: Q04DX003 (ip), vehicle: saline
[4] = dose: 25.0 mg/kg/injection, schedule: Q04DX003 (ip), vehicle: saline with Tween-80
[5] = dose: 100.0 mg/kg/injection, schedule: Q01DX009 (ip), vehicle: saline with Tween-80
[6] = dose: 200.0 mg/kg/injection, schedule: Q01DX009 (ip), vehicle: saline with Tween-80
[7] = dose: 50.0 mg/kg/injection, schedule: Q01DX009 (ip), vehicle: saline with Tween-80

CN1CC2([N+](=O)[O-])C=CCC([N+](=O)[O-])(C1)C2 (stereo not given)
T/C (dose: 25.0 mg/kg/injection, schedule: Q01DX009 (ip), vehicle: water): 90 % of control | T/C (dose: 50.0 mg/kg/injection, schedule: Q01DX009 (ip), vehicle: water): 115 % of control | T/C (dose: 100.0 mg/kg/injection, schedule: Q01DX009 (ip), vehicle: water): 108 % of control | T/C (dose: 200.0 mg/kg/injection, schedule: Q01DX009 (ip), vehicle: water): 99 % of control

CC(Cc1ccc(O)c(O)c1)C(C)Cc1ccc(O)c(O)c1 (stereo not given)
T/C (dose: 50.0 mg/kg/injection, schedule: Q01DX010 (ip), vehicle: saline): 100 % of control | T/C (dose: 100.0 mg/kg/injection, schedule: Q01DX010 (ip), vehicle: saline): 104 % of control | T/C (dose: 200.0 mg/kg/injection, schedule: Q01DX010 (ip), vehicle: saline): 104 % of control

CCOC(=O)C(OCc1ccccc1)(C(=O)OCC)C(C)C
T/C [1]: 115 % of control | T/C [2]: 100 % of control | T/C [3]: 105 % of control

Cc1cc(N(CCCl)CCCl)ccc1N=Nc1ccccc1C(=O)[O-].Cc1cc(N(CCCl)CCCl)ccc1N=Nc1ccccc1C(=O)[O-].[Cu+2]
T/C (dose: 16.5 mg/kg/injection, schedule: Q04DX003 (ip), vehicle: saline with Tween-80): 240 % of control and 105 % of control | T/C [4]: 263 % of control and 165 % of control | T/C (dose: 37.5 mg/kg/injection, schedule: Q04DX003 (ip), vehicle: saline with Tween-80): 227 % of control

O=C1c2ccccc2C(=O)c2cc(S(=O)(=O)Cl)ccc21
T/C (dose: 100.0 mg/kg/injection, schedule: Q01DX001 (ip), vehicle: saline): 109 % of control | T/C (dose: 200.0 mg/kg/injection, schedule: Q01DX001 (ip), vehicle: saline): 109 % of control | T/C (dose: 400.0 mg/kg/injection, schedule: Q01DX001 (ip), vehicle: saline): 90 % of control

CSc1nc2nc(Cl)c(Cl)nc2[nH]1
T/C (dose: 6.25 mg/kg/injection, schedule: Q01DX009 (ip), vehicle: saline): 104 % of control | T/C (dose: 25.0 mg/kg/injection, schedule: Q01DX009 (ip), vehicle: saline): 96 % of control | T/C [1]: 99 % of control | T/C [2]: 102 % of control and 109 % of control | T/C (dose: 100.0 mg/kg/injection, schedule: Q01DX009 (ip), vehicle: saline): 88 % of control | T/C [3]: 95 % of control and 103 % of control | T/C (dose: 200.0 mg/kg/injection, schedule: Q01DX009 (ip), vehicle: saline): 104 % of control | T/C (dose: 200.0 mg/kg/injection, schedule: Q04DX003 (ip), vehicle: saline): 109 % of control | T/C (dose: 400.0 mg/kg/injection, schedule: Q04DX003 (ip), vehicle: saline): 103 % of control

C=CC[n+]1cccc2ccccc21
T/C (dose: 6.25 mg/kg/injection, schedule: Q04DX003 (ip), vehicle: saline): 100 % of control | T/C (dose: 12.5 mg/kg/injection, schedule: Q01DX009 (ip), vehicle: Klucel (hydroxypropylcellulose) (HPC)): 86 % of control | T/C (dose: 12.5 mg/kg/injection, schedule: Q04DX003 (ip), vehicle: saline): 95 % of control | T/C (dose: 25.0 mg/kg/injection, schedule: Q01DX009 (ip), vehicle: Klucel (hydroxypropylcellulose) (HPC)): 90 % of control | T/C [1]: 109 % of control

Nc1ccccc1-n1nc2ccc3ccccc3c2n1
T/C [5]: 105 % of control | T/C (dose: 132.0 mg/kg/injection, schedule: Q01DX009 (ip), vehicle: saline with Tween-80): 90 % of control | T/C [6]: 100 % of control | T/C (dose: 300.0 mg/kg/injection, schedule: Q01DX009 (ip), vehicle: saline with Tween-80): 95 % of control | T/C (dose: 400.0 mg/kg/injection, schedule: Q01DX009 (ip), vehicle: saline with Tween-80): 105 % of control

O=C(N/N=C/c1ccc(Cl)cc1Cl)c1ccccc1
T/C (dose: 50.0 mg/kg/injection, schedule: Q01DX009 (ip), vehicle: Klucel (hydroxypropylcellulose) (HPC)): 110 % of control | T/C (dose: 100.0 mg/kg/injection, schedule: Q01DX009 (ip), vehicle: Klucel (hydroxypropylcellulose) (HPC)): 110 % of control | T/C (dose: 200.0 mg/kg/injection, schedule: Q01DX009 (ip), vehicle: Klucel (hydroxypropylcellulose) (HPC)): 95 % of control

CCOC(=O)C1CC2(CCC1N)c1ccccc1-c1ccccc12 (stereo not given)
T/C [7]: 102 % of control | T/C [5]: 99 % of control | T/C [6]: 108 % of control

[Cu+2].[O-]c1ccc(Br)c2cccnc12.[O-]c1ccc(Br)c2cccnc12
T/C (dose: 12.5 mg/kg/injection, schedule: Q04DX003 (ip), vehicle: saline with Tween-80): 100 % of control | T/C [4]: 90 % of control | T/C (dose: 50.0 mg/kg/injection, schedule: Q04DX003 (ip), vehicle: saline with Tween-80): 95 % of control | T/C (dose: 75.0 mg/kg/injection, schedule: Q04DX003 (ip), vehicle: saline with Tween-80): 90 % of control

CN(N/C=N/S(=O)(=O)c1ccccc1)c1ccccc1
T/C [7]: 94 % of control | T/C [5]: 93 % of control

COc1ccc(Oc2nc(=O)n3ccccc3n2)cc1
T/C [7]: 93 % of control | T/C [5]: 90 % of control | T/C [6]: 88 % of control
